Measurements from US6515025B2, “Use of ethynyl alanine amino diol compounds to inhibit enzymatic conversion of angiotensinogen to angiotensin I” (Pharmacia Corporation, priority 1991, dated 2003).
Several values for one entry are separate records, joined by “and”; a condition that tells them apart may be missing. Equal values may be shown once. Read-outs that look alike come from different tables or passages of the source.

Tests used:
[1] = Oral bioavailability studies in dogs (plasma concentration by bioassay); assay type: in vivo; conditions: dog, plasma
Experimental: The bioavailability in marmosets and dogs was determined by sampling the blood via the femoral vein at various time points after administering the renin inhibitor compounds of the invention in polyethylene glycol 400 at an intragastric dose of 10 mg/kg or at an intravenous dose of 1 mg/kg. Compound concentration in plasma was determined using the bioassay technique described below. The percent bioavailability was calculated by dividing the area under the concentration-vs.-time curve obtained from the intragastric experiment by the area under the concentration-vs.-time curve obtained from the intravenous experiment (adjusting for different doses), and multiplying the result by 100%. The bioavailibility of Example 1 compound is 27% in marmosets and 33% in dogs.
Renin inhibitor plasma concentrations were determined by a bioassay. The plasma samples were extracted with acetonitrile and the extract was evaporated to dryness under nitrogen. Residue was dissolved in 4% bovine serum albumin containing 0.9% NaCl and 5% EDTA. The dissolved residue (0.1 ml) was incubated with a reaction mixture containing human plasma (0.12 ml), 5% phenylmethysulfonylfluoride (1.2 ul), 10% neomycin (2.4 ul), 0.5 M TES buffer (pH 7.4, 24 ul), and 0.6 mU/ml recombinant human renin (1000 U/mg, 50 ul) at 37° C. for 90 minutes. The renin activity was determined by a standard angiotensin I radioimmunoassay (New England Nuclear Corp.). The amount of test compound in the plasma was determined by comparing the extent of inhibition of renin activity with that produced by a known amount of test compound added to plasma and analyzed above.

[2] = tested on: Plasma Renin Activity (PRA); assay: Marmoset plasma renin activity (PRA) reduction on oral administration; assay type: in vivo, Marmoset monkeys (Callithrix jacchus); conditions: 0.1 MPK, IG; for inhibition at 0.1 mg/kg: Primates, po
Experimental: The oral activity of renin inhibitor compounds was determined in vivo in Marmoset monkeys using the following procedure. Common Marmoset monkeys (Callithrix jacchus, Charles River, both sexes, body weight 300-400 g) were placed on a modified high-protein low-sodium diet (Purina, St. Louis, Mo.) for 1 week. About 24 hours prior to the administration of test compound, Lasix (5 mg/kg, im) was given. On the day of the test, the animal was anesthetized with isoflurane, body weight recorded, and a baseline blood sample taken. Then, test compound was given intragastrically and blood samples were taken in K-EDTA for plasma renin activity at appropriate time intervals. The PRA was determined by using the protocol outlined below. Results are expressed in terms of PRA at various time intervals both before and after compound administrations (“Pre” means pretreatment levels before compound administrations). Also included is percent inhibition (% INH from pretreatment levels).
I. Angiotensin I Generation
25 ml of the above reaction mixtures, in duplicate, were incubated at 37° C. or 0° C. for 2 hours.
II. Determination of Angiotensin I Concentrations
Angiotensin I (AI) concentrations were determined by radioimmunoassays with a commercial kit from NEN Co.
III. Calculation of Plasma Renin Activity
PRA (ng AI/ml/hr)=(AI at 37°−AI at 0°)/2 hr.

[3] = iv, 1 mg/kg, IV at 1 mg/kg, read-out: Estimated Plasma Concentration, Mean ± SE
[4] = iv, 1 mg/kg, IV at 1 mg/kg, individual animals, read-out: Estimated Plasma Concentration
[5] = oral, 10 mg/kg, IG at 10 mg/kg, individual animals, read-out: Estimated Plasma Concentration
[6] = oral, 10 mg/kg, IG at 10 mg/kg, read-out: Estimated Plasma Concentration, Mean ± SE

- concentration at 1 h [1, 3]: 62.7 ± 6.4 ng/mL
- concentration at 2 h [1, 4]: 48.8 ng/mL
- concentration at 2 h [1, 3]: 58.2 ± 6.2 ng/mL
- concentration at 4 h [1, 4]: 18.6 ng/mL
- concentration at 4 h [1, 3]: 21.9 ± 1.6 ng/mL
- concentration at 6 h [1, 4]: 10.1 ng/mL
- concentration at 6 h [1, 3]: 11.3 ± 1.1 ng/mL
- concentration at 8 h [1, 4]: 6.4 ng/mL
- concentration at 8 h [1, 3]: 5.8 ± 0.5 ng/mL
- concentration at 24 h [1, 4]: 2.5 ng/mL
- concentration at 24 h [1, 3]: 1.8 ± 0.4 ng/mL
- concentration at 15 min ([1]; oral, 10 mg/kg, IG at 10 mg/kg, 15 min, read-out: Estimated Plasma Concentration, Mean ± SE): 128 ± 77.2 ng/mL
- concentration at 30 min ([1]; oral, 10 mg/kg, IG at 10 mg/kg, 30 min, read-out: Estimated Plasma Concentration, Mean ± SE): 564 ± 158 ng/mL
- concentration at 1 h [1, 5]: 678 ng/mL
- concentration at 1 h [1, 6]: 799 ± 60.5 ng/mL
- concentration at 2 h [1, 5]: 599 ng/mL
- concentration at 2 h [1, 6]: 502 ± 75.8 ng/mL
- concentration at 4 h [1, 5]: 123 ng/mL
- concentration at 4 h [1, 6]: 110 ± 20.9 ng/mL
- concentration at 6 h [1, 5]: 66.9 ng/mL
- concentration at 6 h [1, 6]: 62.1 ± 7.7 ng/mL
- concentration at 8 h [1, 5]: 33.5 ng/mL
- concentration at 8 h [1, 6]: 34.8 ± 5.8 ng/mL
- concentration at 24 h [1, 5]: 6.2 ng/mL
- concentration at 24 h [1, 6]: 7.5 ± 0.7 ng/mL
- bioavailability ([1]; oral, dogs, IG 10 mg/kg vs IV 1 mg/kg): 33%
- Vd ([1]; read-out: Vd, Mean ± SE): 9.5 ± 1 L/kg
- half-life ([1]; read-out: t1/2, Mean ± SE (converted)): 4.7 ± 0.3 h
Structure (SMILES): C#CC[C@H](NC(=O)C(CC(=O)N(C)CCN(C)C)Cc1ccccc1)C(=O)NC(CC1CCCCC1)[C@@H](O)C(O)CC(C)C (relative stereo) [Example 1, N1-[1R*-[[[1S,1R*-(cyclohexylmethyl)-2S*,3R*-dihydroxy-5-methylhexyl]amino]carbonyl]-3-butynyl]-N4-[2-(dimethylamino)ethyl]-N4-methyl-2S*-(phenylmethyl)butanediamide]
- % INH (from pretreatment PRA) ([2]; 60 min, individual monkeys): 76.6% and 95.6%
- PRA ([2]; 60 min from dosing, individual monkeys): 2.8 ngAI/ml/hr and 16.4 ngAI/ml/hr and 4 ngAI/ml/hr
- % INH (from pretreatment PRA) ([2]; 120 min, individual monkeys): 91.1% and 71.5% and 94.2%
- PRA ([2]; 120 min from dosing, individual monkeys): 4.1 ngAI/ml/hr and 20 ngAI/ml/hr and 5.2 ngAI/ml/hr
- % INH (from pretreatment PRA) ([2]; 240 min, individual monkeys): 89.8% and 67.8% and 45%
- PRA ([2]; 240 min from dosing, individual monkeys): 9.2 ngAI/ml/hr and 14.8 ngAI/ml/hr and 38.7 ngAI/ml/hr
- PRA ([2]; Pre (pretreatment level), individual monkeys): 45.8 ngAI/ml/hr and 70.2 ngAI/ml/hr and 90.1 ngAI/ml/hr
- inhibition at 0.1 mg/kg ([2]; 60 min, individual monkeys, read-out: % INH (from pretreatment PRA)): 93.8%
- inhibition at 0.1 mg/kg ([2]; 1 h, 60 min, mean of monkeys A-C, read-out: MEAN % INH): 88.7 ± 6%
- inhibition at 0.1 mg/kg ([2]; 2 h, 120 min, mean of monkeys A-C, read-out: MEAN % INH): 85.6 ± 7%
- inhibition at 0.1 mg/kg ([2]; 4 h, 240 min, mean of monkeys A-C, read-out: MEAN % INH): 67.5 ± 13%
